Reference: ChEMBL document CHEMBL1122236, “3'-Amino-2',3'-dideoxyribonucleosides of some pyrimidines: synthesis and biological activities” (1983)
Values after ≈ are worked out from the molar mass of the structure shown. Active and inactive are the calls of the source. The rule behind the calls is not given here.

Columns and labels:
unidentified adenovirus = experiment: In vitro antiviral activity against adeno virus using plaque reduction assay.; assay type: functional; details: read-out: ED50 (the source's name)
D-38 = experiment: In vitro cytotoxicity against human D-38 cells.; assay type: functional; details: read-out: ED50 (the source's name)
Escherichia coli = experiment: Minimum inhibitory concentration against Escherichia coli; assay type: functional
Klebsiella aerogenes = experiment: Minimum inhibitory concentration against Enterobacter aerogenes; assay type: functional
L cells = experiment: in vitro cytotoxicity against mouse L cells.; assay type: functional; details: L929, read-out: ED50 (the source's name)
Klebsiella pneumoniae = experiment: Minimum inhibitory concentration against Klebsiella pneumoniae; assay type: functional
Pasteurella multocida = experiment: Minimum inhibitory concentration against Pasteurella multocida; assay type: functional
Pseudomonas aeruginosa = experiment: Minimum inhibitory concentration against Pseudomonas aeruginosa; assay type: functional
Proteus mirabilis = experiment: Minimum inhibitory concentration against Proteus mirabilis; assay type: functional
Proteus vulgaris = experiment: Minimum inhibitory concentration against Proteus vulgaris; assay type: functional
Salmonella typhimurium = experiment: Minimum inhibitory concentration against Salmonella Typhimurium; assay type: functional, Salmonella enterica subsp. enterica serovar Typhimurium; details: Salmonella enterica
Serratia marcescens = experiment: Minimum inhibitory concentration against Serratia marcescens; assay type: functional
Shigella flexneri = experiment: Minimum inhibitory concentration against Shigella flexneri; assay type: functional
Salmonella = experiment: Minimum inhibitory concentration against Salmonella typhi; assay type: functional, salmonella typhosa
Staphylococcus aureus = experiment: In vitro minimum inhibitory concentration against Staphylococcus aureus; assay type: functional
Vibrio cholerae = experiment: Minimum inhibitory concentration against Vibrio cholerae; assay type: functional
Citrobacter freundii = experiment: Minimum inhibitory concentration against Citrobacter freundii; assay type: functional
Priestia megaterium = experiment: Minimum inhibitory concentration against Bacillus megaterium; assay type: functional
Candida albicans = experiment: Minimum inhibitory concentration against Candida albicans; assay type: functional
P388 = experiment: Activity against P-388/0 mouse tumor at 675 mg/kg administered three times on days 1, 5, 9 after implantation; Inactive; assay type: functional, organism-based; set-up: dose 675 mg/kg
Streptococcus agalactiae = experiment: Minimum inhibitory concentration against Streptococcus agalactiae; assay type: functional
Streptococcus pyogenes = experiment: Minimum inhibitory concentration against Streptococcus pyogenes; assay type: functional
Enterococcus faecalis = experiment: Minimum inhibitory concentration against Streptococcus faecalis; assay type: functional
[1] = test system: Escherichia coli (organism); experiment: Minimum inhibitory concentration against Escherichia coli

Structure (SMILES) | EC50 (unidentified adenovirus) | EC50 (D-38) | MIC (Escherichia coli) | MIC (Klebsiella aerogenes) | EC50 (L cells) | MIC (Klebsiella pneumoniae) | MIC (Pasteurella multocida) | MIC (Pseudomonas aeruginosa) | MIC (Proteus mirabilis) | MIC (Proteus vulgaris) | MIC (Salmonella typhimurium) | MIC (Serratia marcescens) | MIC (Shigella flexneri) | MIC (Salmonella) | MIC (Staphylococcus aureus) | MIC (Vibrio cholerae) | MIC (Citrobacter freundii) | also measured
Cc1cn([C@H]2C[C@H](N)[C@@H](CO)O2)c(=O)[nH]c1=O [3-AMINO- 3-DEOXYTHYMIDINE] | > 100 µM | 100 µM | > 200 µM | > 200 µM | 3 µM | > 200 µM | > 200 µM | > 200 µM | > 200 µM | > 200 µM | > 200 µM | > 200 µM | > 200 µM | > 200 µM | > 400 µM | > 200 µM | > 200 µM | –
NC1CC(n2cc(Cl)c(=O)[nH]c2=O)OC1CO (stereo not given) | 100 µM | > 100 µM | > 200 µM | > 200 µM | 100 µM | > 200 µM | > 200 µM | > 200 µM | > 200 µM | > 200 µM | > 200 µM | > 200 µM | > 200 µM | > 200 µM | > 200 µM | > 200 µM | > 200 µM | –
NC1CC(n2cc(Br)c(=O)[nH]c2=O)OC1CO (stereo not given) | 100 µM | > 100 µM | > 200 µM | > 200 µM | > 100 µM | > 200 µM | > 200 µM | > 200 µM | > 200 µM | > 200 µM | > 200 µM | > 200 µM | > 200 µM | > 200 µM | > 400 µM | > 200 µM | > 200 µM | –
NC1CC(n2cc(I)c(=O)[nH]c2=O)OC1CO (stereo not given) | > 100 µM | > 100 µM | > 200 µM | > 200 µM | > 100 µM | > 200 µM | > 200 µM | > 200 µM | > 200 µM | > 200 µM | > 200 µM | > 200 µM | > 200 µM | > 200 µM | > 400 µM | > 200 µM | > 200 µM | –
N[C@H]1C[C@H](n2ccc(=O)[nH]c2=O)O[C@@H]1CO | > 100 µM | > 100 µM | > 200 µM | > 200 µM | > 100 µM | > 200 µM | > 200 µM | > 200 µM | > 200 µM | > 200 µM | > 200 µM | > 200 µM | > 200 µM | > 200 µM | > 400 µM | > 200 µM | > 200 µM | –
NC1CC(n2cc(F)c(=O)[nH]c2=O)OC1CO (stereo not given) | 10 µM | > 100 µM | – | > 200 µM | 100 µM | > 200 µM | > 200 µM | > 200 µM | > 200 µM | > 200 µM | > 200 µM | > 200 µM | > 200 µM | > 200 µM | 4 µM (≈ 0.981 µg/mL) | > 200 µM | > 200 µM | MIC (Priestia megaterium): 40 µM (≈ 9.81 µg/mL); MIC (Candida albicans): > 200 µM; Activity (P388): inactive; MIC (Streptococcus agalactiae): 20 µM (≈ 4.9 µg/mL); MIC (Streptococcus pyogenes): > 200 µM; MIC (Enterococcus faecalis): 20 µM (≈ 4.9 µg/mL); MIC [1]: > 200 µM
Nc1ccn([C@H]2C[C@H](N)[C@@H](CO)O2)c(=O)n1 | > 100 µM | 3 µM | > 200 µM | > 200 µM | 1 µM | > 200 µM | > 200 µM | > 200 µM | > 200 µM | > 200 µM | > 200 µM | > 200 µM | > 200 µM | > 200 µM | > 400 µM | > 200 µM | > 200 µM | –
